In patent publication US6444617B1, “Fused-heterocycle dicarboxylic acid diamide derivatives or salts thereof, herbicide and usage thereof” (Nihon Nohyaku Co., Ltd., priority 1998, dated 2002):

Experiments:
Assay type in all cases: in vivo
[1] = tested on: wheat; test: Test Example 4: phytotoxicity to upland crop plants, treatment after emergence; conditions: dosage 5 kg/ha, sprayed after emergence, judged 14 days after treatment
How it was run: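 Weeds, soybean and wheat were sown in soil-filled vats, covered with soil and grown to set leaf stages before a post-emergence spray of an agent containing the compound at a prescribed concentration. Weed-killing rate and crop phytotoxicity were assessed 14 days after treatment.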

[2] = tested on: soybean plant; test: as above; conditions: dosage 5 kg/ha, sprayed after emergence, judged 14 days after treatment
How it was run: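 Upland weeds and crop plants (soybean, wheat) are grown from seed in soil until they reach given leaf stages, then treated by spraying with the compound-containing agent; effects are judged two weeks later.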

[3] = tested on: soybean plant (So); test: Test Example 3: phytotoxicity to upland crop plants, treatment before emergence; conditions: dosage 5 kg/ha
How it was run: (§1)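 A sprayed liquid agent with a prescribed concentration of active compound was applied pre-emergence. Visual phytotoxicity on soybean and wheat was rated by criterion two weeks (14 days) after application, concurrently with the herbicidal assessment.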

[4] = tested on: wheat (Wh); test: as above; conditions: dosage 5 kg/ha
How it was run: as §1

[5] = tested on: barnyard grass (Echinochloa crus-galli Beauv.); test: Test Example 1: herbicidal effect on paddy field weeds before emergence; conditions: Dosage 5 kg/ha
How it was run: (§2)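 Soil in pots is brought to paddy state and seeded with barnyard grass and bulrush; before germination, the soil receives a predetermined dosage of test compound in solution. After twenty-one days, control rate relative to untreated pots is calculated and graded.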

[6] = tested on: bulrush (Scirpus juncoides Roxb.); test: as above; conditions: Dosage 5 kg/ha
How it was run: as §2

[7] = tested on: forxtail grass (Alopecurus aequalis var. amurensis Ohwi), Am; test: Test Example 3: herbicidal effect on upland weeds before emergence; conditions: foxtail grass, dosage 5 kg/ha
How it was run: (§3)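 Pre-emergence spray of liquid prep, compound at set concentration; read at 14 d post-treatment; weed-kill rate calculated, effect graded.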

[8] = tested on: velvetleaf (Abutilon theophtasti L.), At; test: as above; conditions: dosage 5 kg/ha
How it was run: as §3

[9] = tested on: cocklebur (Xanthium strumarium L.), Xs; test: as above; conditions: dosage 5 kg/ha
How it was run: as §3

[10] = tested on: barnyard grass (Echinochloa crus-galli Beauv.), Ec; test: as above; conditions: dosage 5 kg/ha
How it was run: as §3

[11] = tested on: bird's eye speedwell (Veronica persica Poir.), Vp; test: as above; conditions: dosage 5 kg/ha
How it was run: as §3

[12] = tested on: cleavers (Galium aparine L.), Ga; test: as above; conditions: dosage 5 kg/ha
How it was run: as §3

[13] = tested on: forxtail grass (Alopecurus aequalis var. amurensis Ohwi), Am; test: Test Example 4: herbicidal effect on upland weeds after emergence; conditions: dosage 5 kg/ha; sprayed after emergence; judged 14 days after treatment
How it was run: (§4)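 Soil vats; sown weeds + soybean/wheat; spray at leaf-stage, prescribed compound concentration; weed-kill rate judged day 14.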

[14] = tested on: velvetleaf (Abutilon theophtasti L.), At; test: as above; conditions: dosage 5 kg/ha; sprayed after emergence; judged 14 days after treatment
How it was run: as §4

[15] = tested on: cocklebur (Xanthium strumarium L.), Xs; test: as above; conditions: dosage 5 kg/ha; sprayed after emergence; judged 14 days after treatment
How it was run: as §4

[16] = tested on: barnyard grass (Echinochloa crus-galli Beauv.), Ec; test: as above; conditions: dosage 5 kg/ha; sprayed after emergence; judged 14 days after treatment
How it was run: as §4

[17] = tested on: bird's eye speedwell (Veronica persica Poir.), Vp; test: as above; conditions: dosage 5 kg/ha; sprayed after emergence; judged 14 days after treatment
How it was run: as §4

[18] = tested on: cleavers (Galium aparine L.), Ga; test: as above; conditions: dosage 5 kg/ha; sprayed after emergence; judged 14 days after treatment
How it was run: as §4

[19] = tested on: monochoria (Monochoria vaginalis Presl); test: Test Example 2: herbicidal effect on paddy field weeds after emergence; conditions: Dosage 5 kg/ha; one-leaved stage; 21 days after treatment
How it was run: (§5)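 Weeds were sown in 1/10000 are pots of soil flooded to paddy conditions and grown to the one-leaf stage, then the soil was treated with a solution of compound at a predetermined dosage.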

[20] = tested on: barnyard grass (Echinochloa crus-galli Beauv.); test: as above; conditions: Dosage 5 kg/ha; one-leaved stage; 21 days after treatment
How it was run: as §5

[21] = tested on: bulrush (Scirpus juncoides Roxb.); test: as above; conditions: Dosage 5 kg/ha; one-leaved stage; 21 days after treatment
How it was run: as §5

SMILES | Phytotoxicity Wh [1] | Phytotoxicity So [2] | Phytotoxicity So [3] | Phytotoxicity Wh [4] | Pre-emergence treatment Barnyard grass (herbicidal effect) [5] | Pre-emergence treatment Bulrush (herbicidal effect) [6] | Herbicidal effect Am [7] | Herbicidal effect At [8] | Herbicidal effect Xs [9] | Herbicidal effect Ec [10] | Herbicidal effect Vp [11] | Herbicidal effect Ga [12] | Herbicidal effect Am [13] | Herbicidal effect At [14] | Herbicidal effect Xs [15] | Herbicidal effect Ec [16] | Herbicidal effect Vp [17] | Herbicidal effect Ga [18] | Post-emergence treatment Monochoria (herbicidal effect) [19] | Post-emergence treatment Barnyard grass (herbicidal effect) [20] | other results
CCNC(=O)c1nc2ccc(OC)cc2cc1C(=O)Nc1c(CC)ccc(Cl)c1CC [compound 289] | 2 (Crop-killing rate is 40-69%.) | 1 (Crop-killing rate is 1-39%.) | 1 (Crop-killing rate is 1-39%.) | 2 (Crop-killing rate is 40-69%.) | 5 (Weed-killing rate is 100%.) | 5 (Weed-killing rate is 100%.) | 4 (Weed-killing rate is 90-99%.) | 5 (Weed-killing rate is 100%.) | 3 (Weed-killing rate is 70-89%.) | 5 (Weed-killing rate is 100%.) | 5 (Weed-killing rate is 100%.) | 4 (Weed-killing rate is 90-99%.) | 4 (Weed-killing rate is 90-99%.) | 5 (Weed-killing rate is 100%.) | 3 (Weed-killing rate is 70-89%.) | 5 (Weed-killing rate is 100%.) | 5 (Weed-killing rate is 100%.) | 4 (Weed-killing rate is 90-99%.) | 5 (Weed-killing rate is 100%.) | 5 (Weed-killing rate is 100%.) | Post-emergence treatment Bulrush (herbicidal effect) [21]: 4 (Weed-killing rate is 90-99%.)
CCCNC(=O)c1nc2ccc(OC)cc2cc1C(=O)Nc1c(CC)ccc(Cl)c1CC [compound 290] | 3 (Crop-killing rate is 70-89%.) | 2 (Crop-killing rate is 40-69%.) | 1 (Crop-killing rate is 1-39%.) | 2 (Crop-killing rate is 40-69%.) | 5 (Weed-killing rate is 100%.) | 5 (Weed-killing rate is 100%.) | 5 (Weed-killing rate is 100%.) | 5 (Weed-killing rate is 100%.) | 4 (Weed-killing rate is 90-99%.) | 5 (Weed-killing rate is 100%.) | 5 (Weed-killing rate is 100%.) | 5 (Weed-killing rate is 100%.) | 5 (Weed-killing rate is 100%.) | 5 (Weed-killing rate is 100%.) | 4 (Weed-killing rate is 90-99%.) | 5 (Weed-killing rate is 100%.) | 5 (Weed-killing rate is 100%.) | 5 (Weed-killing rate is 100%.) | 5 (Weed-killing rate is 100%.) | 5 (Weed-killing rate is 100%.) | Post-emergence treatment Bulrush (herbicidal effect) [21]: 5 (Weed-killing rate is 100%.)
CCc1ccc(Cl)c(CC)c1NC(=O)c1cc2cc(OC)ccc2nc1C(=O)NOC(C)C [compound 291] | 2 (Crop-killing rate is 40-69%.) | 2 (Crop-killing rate is 40-69%.) | 0 (Crop-killing rate is 0-20% (No Phytotoxicity).) | 1 (Crop-killing rate is 1-39%.) | 5 (Weed-killing rate is 100%.) | 4 (Weed-killing rate is 90-99%.) | 4 (Weed-killing rate is 90-99%.) | 5 (Weed-killing rate is 100%.) | 4 (Weed-killing rate is 90-99%.) | 5 (Weed-killing rate is 100%.) | 5 (Weed-killing rate is 100%.) | 5 (Weed-killing rate is 100%.) | 4 (Weed-killing rate is 90-99%.) | 5 (Weed-killing rate is 100%.) | 4 (Weed-killing rate is 90-99%.) | 5 (Weed-killing rate is 100%.) | 5 (Weed-killing rate is 100%.) | 4 (Weed-killing rate is 90-99%.) | 5 (Weed-killing rate is 100%.) | 5 (Weed-killing rate is 100%.) | Post-emergence treatment Bulrush (herbicidal effect) [21]: 4 (Weed-killing rate is 90-99%.)
CCCNC(=O)c1nc2cc(OC)c(OC)cc2cc1C(=O)Nc1c(CC)ccc(Cl)c1CC [compound 305] | 2 (Crop-killing rate is 40-69%.) | 1 (Crop-killing rate is 1-39%.) | 0 (Crop-killing rate is 0-20% (No Phytotoxicity).) | 2 (Crop-killing rate is 40-69%.) | 5 (Weed-killing rate is 100%.) | 4 (Weed-killing rate is 90-99%.) | 4 (Weed-killing rate is 90-99%.) | 4 (Weed-killing rate is 90-99%.) | 3 (Weed-killing rate is 70-89%.) | 5 (Weed-killing rate is 100%.) | 4 (Weed-killing rate is 90-99%.) | 3 (Weed-killing rate is 70-89%.) | 3 (Weed-killing rate is 70-89%.) | 4 (Weed-killing rate is 90-99%.) | 2 (Weed-killing rate is 40-69%.) | 4 (Weed-killing rate is 90-99%.) | 4 (Weed-killing rate is 90-99%.) | 2 (Weed-killing rate is 40-69%.) | 5 (Weed-killing rate is 100%.) | 4 (Weed-killing rate is 90-99%.) | Post-emergence treatment Bulrush (herbicidal effect) [21]: 3 (Weed-killing rate is 70-89%.)
CCc1ccc(Cl)c(CC)c1NC(=O)c1cc2cc(OC)c(OC)cc2nc1C(=O)NCC(C)C [compound 310] | 2 (Crop-killing rate is 40-69%.) | 0 (Crop-killing rate is 0-20% (No Phytotoxicity).) | 0 (Crop-killing rate is 0-20% (No Phytotoxicity).) | 2 (Crop-killing rate is 40-69%.) | 4 (Weed-killing rate is 90-99%.) | 3 (Weed-killing rate is 70-89%.) | 4 (Weed-killing rate is 90-99%.) | 4 (Weed-killing rate is 90-99%.) | 3 (Weed-killing rate is 70-89%.) | 4 (Weed-killing rate is 90-99%.) | 4 (Weed-killing rate is 90-99%.) | 3 (Weed-killing rate is 70-89%.) | 3 (Weed-killing rate is 70-89%.) | 4 (Weed-killing rate is 90-99%.) | 3 (Weed-killing rate is 70-89%.) | 4 (Weed-killing rate is 90-99%.) | 3 (Weed-killing rate is 70-89%.) | 2 (Weed-killing rate is 40-69%.) | 5 (Weed-killing rate is 100%.) | 3 (Weed-killing rate is 70-89%.) | Post-emergence treatment Bulrush (herbicidal effect) [21]: 2 (Weed-killing rate is 40-69%.)
